Experimental data taken from the NIST ThermoML archive (doi:10.1021/je0604479).
Numbers after ± are expanded uncertainties.

Columns and labels:
[1] = Liquid; for mass density: 298.15 K, 101.33 kPa
[2] = refractive index (Na D-line) (dimensionless); details: 298.15 K; 101.33 kPa; Liquid; Standard Abbe refractometry

## CN(C)C=O [dimethylformamide]
[1]
  mass density: 948.72 ± 0.49 kg/m3
[1]; 425.63 K
  vapor or sublimation pressure: 101.3 ± 0.8 kPa
[2]
  refractive index: 1.4265 ± 0.0008

## CCCOCCC [dipropyl ether]
[1]
  mass density: 741.81 ± 0.65 kg/m3
[1]; 363.16 K
  vapor or sublimation pressure: 101.3 ± 0.8 kPa
[2]
  refractive index: 1.3784 ± 0.0008

## CCCO [propan-1-ol]
[1]
  mass density: 799.62 ± 0.57 kg/m3
[1]; 369.75 K
  vapor or sublimation pressure: 101.3 ± 0.8 kPa
[2]
  refractive index: 1.3836 ± 0.0008
